# From publication PMC10113271, “Rational peptide design for inhibition of the KIX–MLL interaction” (Scientific Reports, 2023)
# Where a SMILES comes first, the peptide text is derived from it. Where no end group is shown, it is not given here.
# Biological target: T1, KIX (Mus musculus, UniProt P45481)
# T1 construct: The DNA fragment of KIX (residues 586–672 of mouse CBP); 6xHis-tag with thrombin cleavage site (N); made in house; host or cells: E. coli BL21(DE3)pLysS
# Assay: KIX binding by isothermal titration calorimetry (ITC)
# Conditions: 30 °C; for − TΔS: entropy term upon KIX binding, pH 7.0, ΔS=(ΔH-ΔG)/T, mean ± standard error of triplicate or more; for N (stoichiometry of binding): pH 7.0, mean ± standard error of triplicate or more
# Experimental: For the expression of MLL TAD, E. coli BL21(DE3) competent cells were transformed with the plasmid and cultivated at 37 °C in 2 × YT liquid medium supplemented with ampicillin. When an optical density at 600 nm (OD600) of the cell culture reached 0.7–0.8, 1 mM isopropyl β-D-1-thiogalactopyranoside was added to induce protein expression. After 4 h of cultivation, the cells were harvested by centrifugation. The E. coli cell pellet was suspended with buffer HP (50 mM sodium phosphate [pH 7.4], 300 mM NaCl, 10 mM imidazole, and 6 M guanidine hydrochloride). The sonicated lysate was centrifuged at 4 °C, and the supernatant was filtered using a membrane filter and applied to a gravity column (50 mL) containing 5 mL of nickel-nitrilotriacetic acid (Ni–NTA) resin (Qiagen, Hilden, Germany). The column was washed with buffer HP and buffer AP (50 mM sodium phosphate [pH 7.4], 300 mM NaCl, and 10 mM imidazole) to remove impurities. To elute His-tag–GB1–MLL TAD for ITC and SPR measurements, 40 mL of buffer EP (50 mM sodium phosphate [pH 7.4], 300 mM NaCl, and 250 mM imidazole) was added to the column. […] Thus, His-tag–GB1–MLL TAD was used in the ITC measurements, with the exception of the four mutants (I2849L, D2851L, K2855R, and T2857I). To obtain the MLL TAD peptide without His-tag–GB1 for CD measurements, we washed the column, to which the His-tag–GB1–MLL TAD was attached, with buffer TP (50 mM sodium phosphate [pH 7.4] and 300 mM NaCl), added 150 units of thrombin to the column for digestion of the His-tag–GB1, and eluted the MLL TAD peptide with buffer TP. After Ni–NTA column purification, anion exchange chromatography was performed to further purify the aforementioned four mutants without His-tag–GB1 using the AKTAprime plus chromatography system (Cytiva, Marlborough, MA, USA; 10 mM sodium phosphate [pH 6.0] and 0–1 M NaCl). Due to the fact that the CD spectra of the four mutants were unchanged before and after the anion exchange chromatography, we omitted this procedure for other mutants.
# Expression and purification of the KIX protein was performed in the same way as MLL, except that E. coli BL21(DE3)pLysS competent cells and 2 × YT liquid medium with ampicillin and chloramphenicol were used. After Ni–NTA column purification, gel filtration chromatography was performed using a Superdex 200 pg column (Cytiva) and the ITC buffer (20 mM Tris–acetate [pH 7.0] and 50 mM NaCl).
# ITC measurements were performed using MicroCal iTC200 (Malvern Panalytical Ltd., Malvern, United Kingdom) at 30 °C. Samples were sufficiently dialyzed with the ITC buffer before measurements. The 600 μM MLL solution was titrated into the cell containing 45 µM KIX. The data were analyzed using the Origin 7 software (OriginLab Corp., Northampton, MA, USA; https://www.originlab.com) to obtain the Kd (M), ΔH (kcal/mol), and stoichiometry of binding, N. The ΔG (kcal/mol) and ΔS (kcal/mol/K) were obtained as follows:2 ΔG=-RTln1/Kd 3 ΔS=ΔH-ΔG/T where R is the gas constant, and T is the temperature.
# T1 sequence (P45481 586-672): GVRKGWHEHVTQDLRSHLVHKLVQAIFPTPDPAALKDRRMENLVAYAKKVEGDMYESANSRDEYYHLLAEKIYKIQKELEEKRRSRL
N (stoichiometry of binding),Molecule,− TΔS [kcal/mol]
,"T2857F: T2857F mutant of the MLL TAD peptide (GNILPSDIMDFVLKNFPSMQALGESPESY; left off: His6, N-terminal, cleaved | GB1 (B1 domain of Streptococcal protein G), N-terminal, cleaved)",3.2 ± 0.3
,K2855R / T2857L: K2855R/T2857L double mutant of the MLL TAD peptide ({His6-GB1}-GNILPSDIMDFVLRNLPSMQALGESPESY),1.5 ± 0.2
,T2857R: T2857R mutant of the MLL TAD peptide ({His6-GB1}-GNILPSDIMDFVLKNRPSMQALGESPESY),4.9 ± 0.3
1.020 ± 0.006,CC[C@H](C)[C@H](NC(=O)[C@H](CC(=O)O)NC(=O)[C@H](CO)NC(=O)[C@@H]1CCCN1C(=O)[C@H](CC(C)C)NC(=O)[C@@H](NC(=O)[C@H](CC(N)=O)NC(=O)CN)[C@@H](C)CC)C(=O)N[C@@H](CCSC)C(=O)N[C@@H](CC(C)C)C(=O)N[C@@H](Cc1ccccc1)C(=O)N[C@H](C(=O)N[C@@H](CC(C)C)C(=O)N[C@@H](CCCCN)C(=O)N[C@@H](CC(N)=O)C(=O)N[C@H](C(=O)N1CCC[C@H]1C(=O)N[C@@H](CO)C(=O)N[C@@H](CCSC)C(=O)N[C@@H](CCC(N)=O)C(=O)N[C@@H](C)C(=O)N[C@@H](CC(C)C)C(=O)NCC(=O)N[C@@H](CCC(=O)O)C(=O)N[C@@H](CO)C(=O)N1CCC[C@H]1C(=O)N[C@@H](CCC(=O)O)C(=O)N[C@@H](CO)C(=O)N[C@@H](Cc1ccc(O)cc1)C(=O)O)[C@@H](C)O)C(C)C [D2851L] (H-GNILPSDIMLFVLKNTPSMQALGESPESY-OH; N-terminus and C-terminus assumed),1.4 ± 0.4
1.043 ± 0.003,CC[C@H](C)[C@H](NC(=O)[C@H](CC(=O)O)NC(=O)[C@H](CO)NC(=O)[C@@H]1CCCN1C(=O)[C@H](CC(C)C)NC(=O)[C@@H](NC(=O)[C@H](CC(N)=O)NC(=O)CN)[C@@H](C)CC)C(=O)N[C@@H](CCSC)C(=O)N[C@@H](CC(=O)O)C(=O)N[C@@H](Cc1ccccc1)C(=O)N[C@H](C(=O)N[C@@H](CC(C)C)C(=O)N[C@@H](CCCCN)C(=O)N[C@@H](CC(N)=O)C(=O)N[C@H](C(=O)N1CCC[C@H]1C(=O)N[C@@H](CO)C(=O)N[C@@H](CCSC)C(=O)N[C@@H](CCC(N)=O)C(=O)N[C@@H](C)C(=O)N[C@@H](CC(C)C)C(=O)NCC(=O)N[C@@H](CCC(=O)O)C(=O)N[C@@H](CO)C(=O)N1CCC[C@H]1C(=O)N[C@@H](CCC(=O)O)C(=O)N[C@@H](CO)C(=O)N[C@@H](Cc1ccc(O)cc1)C(=O)O)[C@@H](C)CC)C(C)C [T2857I] (H-GNILPSDIMDFVLKNIPSMQALGESPESY-OH; N-terminus and C-terminus assumed),2.21 ± 0.08
,T2857L: T2857L mutant of the MLL TAD peptide ({His6-GB1}-GNILPSDIMDFVLKNLPSMQALGESPESY),2.6 ± 0.1
0.94 ± 0.02,CC[C@H](C)[C@H](NC(=O)[C@H](CC(=O)O)NC(=O)[C@H](CO)NC(=O)[C@@H]1CCCN1C(=O)[C@H](CC(C)C)NC(=O)[C@@H](NC(=O)[C@H](CC(N)=O)NC(=O)CN)[C@@H](C)CC)C(=O)N[C@@H](CCSC)C(=O)N[C@@H](CC(=O)O)C(=O)N[C@@H](Cc1ccccc1)C(=O)N[C@H](C(=O)N[C@@H](CC(C)C)C(=O)N[C@@H](CCCNC(=N)N)C(=O)N[C@@H](CC(N)=O)C(=O)N[C@H](C(=O)N1CCC[C@H]1C(=O)N[C@@H](CO)C(=O)N[C@@H](CCSC)C(=O)N[C@@H](CCC(N)=O)C(=O)N[C@@H](C)C(=O)N[C@@H](CC(C)C)C(=O)NCC(=O)N[C@@H](CCC(=O)O)C(=O)N[C@@H](CO)C(=O)N1CCC[C@H]1C(=O)N[C@@H](CCC(=O)O)C(=O)N[C@@H](CO)C(=O)N[C@@H](Cc1ccc(O)cc1)C(=O)O)[C@@H](C)O)C(C)C [K2855R] (H-GNILPSDIMDFVLRNTPSMQALGESPESY-OH; N-terminus and C-terminus assumed),5.7 ± 0.4
